# Results from patent US20230117205A1, “B7-H4 ANTIBODY-DRUG CONJUGATES FOR THE TREATMENT OF CANCER” (SEAGEN INC., priority 2021, published 2023).
# Experiments:
# HR+ BC PDX models = assay: HR+ breast cancer patient-derived xenograft models; assay type: in vivo, mice; conditions: for % TGI: 3 mg/kg q7dx3, vs untreated
# Experimental: Specifically, Stock mice were bilaterally implanted with fragments from one of the Champions TumorGraft® models representing human HR^+ BC or ovarian cancer. After the tumors reached 1000-1500 mm^3, they were harvested, and the tumor fragments were implanted subcutaneously (s.c.) in the left flank of the female study mice. Each animal was implanted with a specific passage lot and documented. Tumor growth was monitored twice a week using digital calipers, and the tumor volume (TV) was calculated using the formula (0.52×[length×width^2]). When the TV reached approximately 150-300 mm^3, animals were matched by tumor size and assigned into control (untreated) or treatment groups (n=3 animals/group). Each animal in the treatment groups was dosed with 3 mg/kg of ADC every seven days for three total doses (q7dx3). […]
# Inhibition of tumor growth was determined by calculating the percent TGI on the day at which animals in the control group were terminated (100%×[1−(final MTV−initial MTV of a treated group)/(final MTV−initial MTV of the control group)]). Treatment started on Day 0.
# [1] = tested on: MDA-MB-468 xenograft tumors; assay: MDA-MB-468 xenograft, single dose, tumor volume; assay type: in vivo, NSG mice; conditions: single 3 mg/kg dose, i.p.
# Experimental: Tumors were harvested 7 days after treatment, cut in half, and processed for RNA-seq or IHC. […]
# Specifically, female NSG mice were implanted with 1×10^6 MDA-MB-468 cells in 25% Matrigel H C subcutaneously. Once tumor volumes reached ˜250-300 mm^3, mice were randomized into treatment groups of 6 mice each and treated with a single 3 mg/kg dose of ADC or mAb, or vehicle control (20 mM Histidine buffer, pH 6.0) injected intraperitoneally (i.p.). Stock concentrations of ADC were diluted to desired concentration with 20 mM Histidine buffer, pH 6.0 or and stock concentration of mAb were diluted to desired concentration with 0.01% Tween20 in PBS. Twenty-four hours prior to dosing, each animal was treated with 10 mg/kg hIVIG. One week following treatment, tumors were harvested, cut in half, and processed for RNAseq (frozen at −80° C.) or formalin-fixed and paraffin-embedded for immunohistochemical (IHC) analysis.
substance,measurement,setting,value
SGN-B7H4V: ADC of fully human IgG1 anti-B7-H4 mAb conjugated to monomethyl auristatin E (MMAE) via a protease-cleavable valine-citrulline linker (vedotin),PDX models with antitumor activity,"HR+ BC PDX models; HR+ BC, 3 mg/kg, 3 weekly doses",⅙
same,% TGI,"HR+ BC PDX models; HR+ BC_1, Day 38",7%
same,% TGI,"HR+ BC PDX models; HR+ BC_2, Day 34",79%
same,% TGI,"HR+ BC PDX models; HR+ BC_3, Day 16",28%
same,% TGI,"HR+ BC PDX models; HR+ BC_4, Day 59",12%
same,% TGI,"HR+ BC PDX models; HR+ BC_5, Day 59",11%
same,% TGI,"HR+ BC PDX models; HR+ BC_6, Day 62",16%
same,tumor volume,[1],reduction in tumor volume
